The text below walks through data of patent publication US10835461B2, “Bio-active material composite, preparing method thereof and cosmetic composition containing the same” (priority 2015, dated 2020).

The series in a line: Stability of pure vitamin C and YHC-Vc in aqueous solution (color, pH, vitamin C content) at 50° C. in airtight container for four weeks. It is filed as physicochemical.

Take `O=C1O[C@H]([C@@H](O)CO)C(O)=C1O` [vitamin C, ascorbic acid]: the change of color entry (50° C., airtight glass container, four weeks, 3.0 wt % vitamin C solution or 10.0 wt % composite dispersion) is “abrupt change of color in the order from clear (colorless) to yellow, orange, and then red”. Under “In 4 weeks, 50° C., airtight container”, the pH worked out at 2.52. For the same compound, the pH condition maintained (at 50° C. for 4 weeks) was roughly 2. Under “in four weeks at 50° C. in airtight container”, the “remaining amount of vitamin C” value was “about 51%”.
